Test results taken from patent publication US10421779B2, “Carbazole compound having anti-virus activity” (priority 2016, dated 2019).

Columns and labels:
Format in all cases: cell-based
[1] = test system: HCV genotype 1 b (HCV replicon system); test: HCV replicon system genotype 1b, Renilla luciferase activity; details: Hepatitis C virus, 72 h; HCV genotype 1b replicon, Rluc, 3 days; read-out: Replicon EC50 1b type
How it was run: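 Genotype 1b replicon carrying Renilla luciferase and 1b non-structural genes, treated with compound at various concentrations. Luciferase activity read after 3 days relative to control to derive EC50.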

[2] = test system: hepatitis C virus mutant Y93H of the NS5A region; test: Efficacy on resistant mutant Y93H; details: read-out: EC50 Y93H
Source text: (§1) As a mutant resistant to hepatitis C virus, L31V and Y93H of the NS5A region, and double mutants thereof were applied.

[3] = test system: hepatitis C virus mutant L31V of the NS5A region; test: Efficacy on resistant mutant L31V; details: read-out: EC50 L31V
Source text: as §1

[4] = test system: hepatitis C virus double mutant L31V and Y93H of the NS5A region; test: Efficacy on resistant double mutant (L31V and Y93H); details: read-out: EC50 Double mutant
Source text: as §1

Compound: COCCn1c2cc(NC(=O)[C@@H]3CCCN3C(=O)[C@H](NC(=O)OC)c3ccccc3)ccc2c2ccc(NC(=O)[C@@H]3CCCN3C(=O)[C@H](NC(=O)OC)c3ccccc3)cc21 [Example 21, dimethyl ((1R,1′R)-((2S,2′S)-(((9-(2-methoxyethyl)-9H-carbazole-2,7-diyl)bis(azanediyl))bis(carbonyl))bis(pyrrolidine-2,1-diyl))bis(2-oxo-1-phenylethane-2,1-diyl))dicarbamate]
- EC50 [1]: 0.111 nM
- EC50 [2]: 100 to 1000 nM
- EC50 [3]: 10 to 100 nM
- EC50 [4]: > 1000 nM

Compound: COC(=O)N[C@@H](C(=O)N1CCC[C@H]1C(=O)Nc1ccc2c3ccc(NC(=O)[C@@H]4CCCN4C(=O)[C@H](NC(=O)OC)c4ccccc4)cc3n(Cc3cccc(C)n3)c2c1)c1ccccc1 [Example 20, dimethyl ((1R,1′R)-((2S,2′S)-(((9-((6-methylpyridine-2-yl)methyl)-9H-carbazole-2,7-diyl)bis(azanediyl))bis(carbonyl))bis(pyrrolidine-2,1-diyl))bis(2-oxo-1-phenylethane-2,1-diyl))dicarbamate]
- EC50 [1]: 0.222 nM
- EC50 [2]: > 1000 nM
- EC50 [3]: 10 to 100 nM
- EC50 [4]: > 1000 nM

Compound: COC(=O)N[C@@H](C(=O)N1CCC[C@H]1C(=O)Nc1ccc2c3ccc(NC(=O)[C@@H]4CCCN4C(=O)[C@H](NC(=O)OC)c4ccccc4)cc3n(Cc3ccncc3)c2c1)c1ccccc1 [Example 19, dimethyl ((1R,1′R)-((2S,2′S)-(((9-(pyridine-4-ylmethyl)-9H-carbazole-2,7-diyl)bis(azanediyl))bis(carbonyl))bis(pyrrolidine-2,1-diyl))bis(2-oxo-1-phenylethane-2,1-diyl))dicarbamate]
- EC50 [1]: 0.243 nM
- EC50 [2]: > 1000 nM
- EC50 [3]: 1 to 10 nM
- EC50 [4]: > 1000 nM
